What was measured:
[1] = tested on: synaptosomes from the striatal area of rat brain; test: [3H]-dopamine release from rat striatal synaptosomes; assay type: biochemical, Sprague-Dawley rats; conditions: 0.2 ml of 10 μM solution of ligand; relative to equal concentration of (S)-(-)-nicotine
Experimental: Dopamine release was measured by preparing synaptosomes from the striatal area of rat brain obtained from Sprague-Dawley rats generally according to the procedures set forth by Nagy, et al., J. Neurochem., Vol. 43, pp. 1114-1123 (1984). Striata from 4 rats were homogenized in 2 ml of 0.32M sucrose buffered with 5 mM HEPES (pH 7.5), using a glass-teflon tissue grinder. The homogenate was diluted to 5 ml with additional homogenization solution and centrifuged at 1000×g for 10 min. This procedure was repeated on the new pellet and the resulting supernatant was centrifuged at 12,000×g for 20 min. […] Using this method, 30 to 90 percent of the dopamine was taken up into the synaptosomes, as determined by scintillation counting following filtration through glass fiber filters soaked with 0.5 percent polyethyleneimine. […] After the addition of a 0.2 ml of a 10 μM solution of ligand, the perfusate was collected into scintillation vials at 1 min. intervals and the dopamine released was quantified by scintillation counting. Peaks of radioactivity released above background were summed and the average basal release during that time was subtracted from the total. Release was expressed as a percentage of release obtained with an equal concentration of (S)-(-)-nicotine.

[2] = biological target: high affinity nicotinic receptors; test: Inhibition of L-[3H]nicotine binding to mouse brain membrane preparations; set-up: species or system Mice (DBA strain); conditions: mouse brain membranes, 2 hr at 4° C., Ki calculated from IC50 by method of Cheng et al.
Experimental: Mice (DBA strain) were maintained on a 12 hour light/dark cycle and were allowed free access to water and food supplied by Wayne Lab Blox, Madison, WI. Animals used in the present studies were 60 to 90 days of age and weighed 20 to 25 g. Brain membrane preparations were obtained from pooled brain tissue of both males and females.
Mice were killed by cervical dislocation. Brains were removed and placed on an ice-cold platform. The cerebellum was removed and the remaining tissue was placed in 10 volumes (weight:volume) of ice-cold buffer (Krebs-RingersHEPES:NaCl, 118 mM; KCl, 4.8 mM; CaCl2, 2.5 mM; MgSO4, 1.2 mM; HEPES, 20 mM; pH to 7.5 with NaOH) and homogenized with a glass-Teflon tissue grinder. The resulting homogenate was centrifuged at 18000×g for 20 min. and the resulting pellet was resuspended in 20 volumes of water. […] Protein was determined by the method of Lowry, et al., J. Biol. Chem., Vol. 193, pp. 265-275 (1951), using bovine serum albumin as the standard.
The binding of L-[^3 H]nicotine was measured using a modification of the method of Romano, et al., Science, Vol. 210, pp. 647-650 (1980) as described previously by Marks, et al., Mol. Pharmacol., Vol. 30, pp. 427-436 (1986). The binding of L-[^3 H]nicotine was measured using a 2 hr. incubation at 4° C. […] Nonspecific binding was determined by inclusion of 10 μM nonradioactive nicotine in the incubations. […]

In the case of `CNCCCC(=O)c1cccnc1` [pseudooxynicotine], the “Dopamine Release, percent release relative to (S)-(-)-nicotine” value [1] is reported as 45% and the Ki [2] is reported as 1700 nM.

Source: patent US5232932A, “Method for treatment of neurodegenerative diseases” (R. J. Reynolds Tobacco Company, priority 1992, dated 1993)
